Reference: paper PMC5085761 (International Journal of Molecular Sciences, 2016)

Molecular target: T1, OAT3 (Homo sapiens, UniProt Q8TCC7)
T1 construct: host or cells: HEK293
T1 sequence (Q8TCC7 1-542): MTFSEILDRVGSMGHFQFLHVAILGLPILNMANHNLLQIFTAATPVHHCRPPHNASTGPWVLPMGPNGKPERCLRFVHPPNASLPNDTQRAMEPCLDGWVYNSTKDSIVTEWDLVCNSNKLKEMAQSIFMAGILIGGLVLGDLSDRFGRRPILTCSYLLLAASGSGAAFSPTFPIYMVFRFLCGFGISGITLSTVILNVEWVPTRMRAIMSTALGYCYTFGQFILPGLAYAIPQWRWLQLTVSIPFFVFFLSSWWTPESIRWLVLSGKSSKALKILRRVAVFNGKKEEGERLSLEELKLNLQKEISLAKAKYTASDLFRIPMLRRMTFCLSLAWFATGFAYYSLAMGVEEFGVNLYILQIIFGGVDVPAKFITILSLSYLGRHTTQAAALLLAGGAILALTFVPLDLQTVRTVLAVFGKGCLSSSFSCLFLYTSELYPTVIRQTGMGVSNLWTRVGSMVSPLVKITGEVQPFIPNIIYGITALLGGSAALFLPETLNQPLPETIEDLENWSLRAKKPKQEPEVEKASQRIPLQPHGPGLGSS
Experiment: [14C]fluciclovine uptake by OAT3-expressing cells
Type: in vitro ADME
Conditions: OAT3 cells vs mock cells

SMILES: N[14C]1(C(=O)O)CC(F)C1 (stereo not drawn) [[^14C]fluciclovine, trans-1-amino-3-fluoro[1-^14C]cyclobutanecarboxylic acid]
- drug transporter-mediated uptake: negligible
